Assay results reported in patent US20250163070A1, “SPIRO COMPOUND AND APPLICATION THEREOF” (HITGEN INC., priority 2022, published 2025).

Assays:
CRBN/DDB1 protein [1] = target: T1, CRBN/DDB1 protein (Homo sapiens (Human), UniProt Q96SW2); test: Inhibition of CRBN/DDB1 protein activity, fluorescence resonance energy transfer (FRET) method with FITC-labeled thalidomide analog; assay type: binding; details: 5.0 nM CRBN/DDB1, 50.0 nM FITC-labeled thalidomide analog, 25° C., pH 7.0
Source text: Experiment 1 Detection of Compounds Inhibition of CRBN/DDB1 Protein Activity (Using a Fluorescence Resonance Energy Transfer (FRET) Method)
Microplate reader (BMG PHERAstar FSX), ECHO (LABCYTE Echo 665), microplate thermostatic oscillator (Hangzhou Ruicheng Instrument Co., Ltd.), disodium hydrogen phosphate (Sigma-Aldrich (Shanghai) Trading Co., Ltd.), sodium dihydrogen phosphate (Sigma-Aldrich (Shanghai) Trading Co., Ltd.), bovine serum albumin (Sigma-Aldrich (Shanghai) Trading Co., Ltd.), Anti-6His-Tb crypate Gold (Cisbio Bioassays Company CISBIO), CRBN/DDB1 protein (HitGen Inc.), 384-well plate (Grenier Bio-one (Shanghai) Co., Ltd.).
The compound powders were dissolved in DMSO and serially diluted using ECHO. The resulting dilutions were individually added to 384-well reaction plates, ensuring that the final concentration of DMSO in the entire reaction system (10.0 μL) was 1.0%. An equal volume of DMSO was added as a control.
The CRBN/DDB1 protein was diluted to twice the required final concentration (5.0 nM) by addition of 20 mM disodium hydrogen phosphate, 20 mM sodium dihydrogen phosphate, 0.08% bovine serum albumin and a buffer with pH 7.0. […] The Anti-6His-Tb crypate Gold and FITC-labeled thalidomide analog were diluted to twice the required final concentration by addition of 20 mM disodium hydrogen phosphate, 20 mM sodium dihydrogen phosphate, 0.08% bovine serum albumin and the buffer with pH 7.0. The final concentration of Anti-6His-Tb crypate Gold was 0.2 nM, and the final concentration of the FITC-labeled thalidomide analog was 50.0 nM, so as to obtain a mixture of Anti-6His-Tb crypate Gold/FITC-labeled thalidomide analog. 5.0 μL of the mixture of Anti-6His-Tb crypate Gold/FITC-labeled thalidomide analog was individually added to the 384-well reaction plates, followed by centrifugation at 1000 rpm for 1 min. Then the reaction plates were incubated in the microplate thermostatic oscillator at 25° C. and 250 rpm for 30 min. After the reaction was completed, the fluorescence signal values in the 384-well reaction plates were read using the microplate reader (Ex=337 nm, Em=520/490 nm).
A solvent group (containing 5.0 nM CRBN/DDB1, 0.2 nM Anti-6His-Tb crypate Gold, 50.0 nM FITC-labeled thalidomide analog and 1.0% DMSO) was used as a negative control. A reaction buffer group (containing 0.2 nM Anti-6His-Tb crypate Gold, 50.0 nM FITC-labeled thalidomide analog and 1.0% DMSO) was used as the blank control.
The residual activity percentage at each concentration was calculated using the following formula: […]
A dose-effect curve was fitted using GraphPad 6.0 to calculate the IC50 value.

CRBN/DDB1 protein [2] = target: T1, CRBN/DDB1 protein; test: Isothermal titration calorimetry (ITC) detection of compound binding to CRBN/DDB1; details: 25° C., pH 7.0, 10 μM protein, 100 μM compound, one set of sites model
Procedure: Experiment 2 Isothermal Titration Calorimetry (ITC) Detection of Compound Binding to CRBN/DDB1
6.1 mL of 200 mM disodium hydrogen phosphate aqueous solution and 3.9 mL of 200 mM sodium dihydrogen phosphate aqueous solution were mixed to obtain 200 mM PB buffer (pH 7.0). Then, 5397 μL of deionized water was mixed with 600 μL of 200 mM PB buffer and 3 μL of 10% Tween 20 aqueous solution to prepare a detection buffer with a pH of 7.0.
The protein storage solution was subjected to buffer exchange using the detection buffer prepared above according to the instruction of the Zeba™ Spin Desalting Columns (Thermo Fisher Scientific Inc., #89882). After the exchange was completed, ultraviolet (UV) absorption of the protein solution at OD280nm was measured using the microplate reader (BMG LABTECH Inc., PHERAstar FSX), and the concentration was calculated. Based on the measured concentration, the protein was diluted to 10 μM with the detection buffer, and added with DMSO to a final concentration of 1%, resulting in a total volume of 300 μL. After a brief centrifugation at room temperature, the solution was collected for later use.
The compound powder was dissolved in DMSO and diluted to 100 μM with the detection buffer prepared above. The DMSO concentration was adjusted to a final concentration of 1% with a total volume of 100 μL. […]

T1 sequence (Q96SW2 whole entry, species assumed): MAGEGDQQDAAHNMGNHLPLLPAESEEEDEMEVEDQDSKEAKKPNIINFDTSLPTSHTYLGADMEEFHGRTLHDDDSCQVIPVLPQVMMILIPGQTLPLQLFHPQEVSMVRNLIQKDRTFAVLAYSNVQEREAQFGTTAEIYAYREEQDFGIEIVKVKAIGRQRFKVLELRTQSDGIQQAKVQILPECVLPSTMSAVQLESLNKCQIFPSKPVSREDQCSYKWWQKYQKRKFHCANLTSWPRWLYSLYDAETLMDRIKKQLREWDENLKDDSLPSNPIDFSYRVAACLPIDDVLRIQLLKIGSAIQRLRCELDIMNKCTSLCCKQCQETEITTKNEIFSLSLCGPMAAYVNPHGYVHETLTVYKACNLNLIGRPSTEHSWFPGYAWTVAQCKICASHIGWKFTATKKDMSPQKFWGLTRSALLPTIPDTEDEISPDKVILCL
T1 sequence (Q16531 whole entry partner, species assumed): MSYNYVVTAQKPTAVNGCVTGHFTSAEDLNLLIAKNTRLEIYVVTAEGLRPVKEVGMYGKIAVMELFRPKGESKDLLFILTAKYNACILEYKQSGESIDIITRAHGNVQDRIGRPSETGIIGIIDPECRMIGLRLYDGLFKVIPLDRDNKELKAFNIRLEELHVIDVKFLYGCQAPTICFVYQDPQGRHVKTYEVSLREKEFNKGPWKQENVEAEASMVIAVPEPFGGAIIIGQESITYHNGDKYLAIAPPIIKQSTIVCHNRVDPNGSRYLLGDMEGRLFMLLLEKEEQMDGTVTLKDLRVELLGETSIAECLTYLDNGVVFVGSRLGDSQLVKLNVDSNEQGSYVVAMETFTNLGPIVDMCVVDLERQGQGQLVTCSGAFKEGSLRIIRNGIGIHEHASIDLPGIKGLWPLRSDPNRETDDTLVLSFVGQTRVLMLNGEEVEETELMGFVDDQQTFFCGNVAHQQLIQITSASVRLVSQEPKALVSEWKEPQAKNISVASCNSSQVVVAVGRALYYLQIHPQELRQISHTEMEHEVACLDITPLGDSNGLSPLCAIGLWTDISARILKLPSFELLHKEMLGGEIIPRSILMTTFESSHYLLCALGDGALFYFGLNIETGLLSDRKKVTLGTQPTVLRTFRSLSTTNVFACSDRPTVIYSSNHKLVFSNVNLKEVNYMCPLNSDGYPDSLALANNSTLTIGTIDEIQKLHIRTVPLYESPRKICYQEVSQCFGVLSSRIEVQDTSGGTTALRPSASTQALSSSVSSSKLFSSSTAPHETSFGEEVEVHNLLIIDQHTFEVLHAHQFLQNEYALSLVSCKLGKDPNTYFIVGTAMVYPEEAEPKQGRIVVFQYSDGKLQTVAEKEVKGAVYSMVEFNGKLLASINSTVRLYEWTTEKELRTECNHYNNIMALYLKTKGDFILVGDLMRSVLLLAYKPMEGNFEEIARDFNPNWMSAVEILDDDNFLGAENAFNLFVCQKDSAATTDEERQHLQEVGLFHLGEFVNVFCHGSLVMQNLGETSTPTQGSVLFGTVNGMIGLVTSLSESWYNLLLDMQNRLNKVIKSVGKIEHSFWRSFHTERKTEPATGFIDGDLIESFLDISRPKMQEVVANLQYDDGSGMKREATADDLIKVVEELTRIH

For `CN(C)C(=O)c1c(C(=O)N2CC3(CC(=O)NC3=O)C2)sc2ccccc12` [Compound A2], which IC50 (CRBN/DDB1 protein [1]) is on record?
Its IC50 is 100 to 1000 nM.

Which results are given for `CN(C)C(=O)c1[nH]c2ccccc2c1C(=O)N1CC2(CC(=O)NC2=O)C1` [Compound A3]?
IC50 (CRBN/DDB1 protein [1]): < 100 nM; Kd (CRBN/DDB1 protein [2]): 15 nM

How did the IC50 (CRBN/DDB1 protein [1]) turn out when `CN(C)C(=O)c1ccc(C(=O)N2CC3(CC(=O)NC3=O)C2)cc1` [Compound A4] was run?
Its IC50 is 1000 to 10000 nM.

`CN(C)C(=O)c1cccc(C(=O)N2CC3(CC(=O)NC3=O)C2)c1` [Compound A5] was tested. Which IC50 (CRBN/DDB1 protein [1]) did it give?
Its IC50 is 1000 to 10000 nM.

With `CN(C)C(=O)c1cscc1C(=O)N1CC2(CC(=O)NC2=O)C1` [Compound A6] as the compound, how does the IC50 (CRBN/DDB1 protein [1]) read?
Its IC50 is 100 to 1000 nM.

`O=C1CC2(CN(C(=O)c3c(C(=O)NC4CCCCC4)sc4ccccc34)C2)C(=O)N1` [Compound A7] was tested. Which IC50 (CRBN/DDB1 protein [1]) did it give?
The IC50 was < 100 nM.

With `O=C1CC2(CN(C(=O)c3c(C(=O)N4CCNCC4)sc4ccccc34)C2)C(=O)N1` [Compound A8] as the compound, how does the IC50 (CRBN/DDB1 protein [1]) read?
Its IC50 is < 100 nM.

For `O=C1CC2(CN(C(=O)c3c(C(=O)N4CC5(COC5)C4)sc4ccccc34)C2)C(=O)N1` [Compound A9], which IC50 (CRBN/DDB1 protein [1]) is on record?
Its IC50 is < 100 nM.

`NC(=O)c1sc2ccccc2c1C(=O)N1CC2(CC(=O)NC2=O)C1` [Compound A10] was tested. Which IC50 (CRBN/DDB1 protein [1]) did it give?
The IC50 was 100 to 1000 nM.

`CC(=O)N1CCN(C(=O)c2sc3ccccc3c2C(=O)N2CC3(CC(=O)NC3=O)C2)CC1` [Compound A11] was tested. Which IC50 (CRBN/DDB1 protein [1]) did it give?
Its IC50 is < 100 nM.

Which IC50 (CRBN/DDB1 protein [1]) does the source give for `O=C1CC2(CN(C(=O)c3cc4ccccc4s3)C2)C(=O)N1` [Compound A12] here?
The IC50 was 1000 to 10000 nM.

How did the IC50 (CRBN/DDB1 protein [1]) turn out when `O=C1CC2(CN(C(=O)c3csc4ccccc34)C2)C(=O)N1` [Compound A13] was run?
Its IC50 is 1000 to 10000 nM.

Which IC50 (CRBN/DDB1 protein [1]) does the source give for `COC(=O)c1ccccc1C(=O)N1CC2(CC(=O)NC2=O)C1` [Compound A14] here?
Its IC50 is 100 to 1000 nM.

Which IC50 (CRBN/DDB1 protein [1]) does the source give for `CN(C)C(=O)c1sccc1C(=O)N1CC2(CC(=O)NC2=O)C1` [Compound A15] here?
The IC50 was 1000 to 10000 nM.

With `CN(C)C(=O)c1[nH]c2ccccc2c1CN1CC2(CC(=O)NC2=O)C1` [Compound A17] as the compound, how does the IC50 (CRBN/DDB1 protein [1]) read?
Its IC50 is 100000 to 200000 nM.

For `CN(C)C(=O)c1c(C(=O)N2CC3(CC(=O)NC3=O)C2)c2ccccc2n1C` [Compound A19], which IC50 (CRBN/DDB1 protein [1]) is on record?
The IC50 was < 100 nM.
